Measured values from ChEMBL document CHEMBL5113381, “Large-Scale Screening of Antifungal Peptides Based on Quantitative Structure-Activity Relationship” (2022).
In brackets after ≈: the same amount, converted by molar mass. Peptide text beside a SMILES is read from it.

Experiments:
Type in all cases: functional
Candida albicans = assay: Antifungal activity against Candida albicans SC5314 measured after 24 to 48 hrs by CLSI method; settings: time 24-48 hrs
Pichia kudriavzevii = assay: Antifungal activity against Candida krusei IFM56881 measured after 24 to 48 hrs by CLSI method; settings: time 24-48 hrs
Cryptococcus neoformans = assay: Antifungal activity against Cryptococcus neoformans H99 measured after 24 to 48 hrs by CLSI method; settings: time 24-48 hrs
Candida parapsilosis = assay: Antifungal activity against Candida parapsilosis ATCC 22019 measured after 24 to 48 hrs by CLSI method; settings: Lodderomyces parapsilosis, time 24-48 hrs

| Structure (SMILES) | MIC (Candida albicans) [µM] | MIC (Pichia kudriavzevii) [µM] | MIC (Cryptococcus neoformans) [µM] | MIC (Candida parapsilosis) [µM] |
| --- | --- | --- | --- | --- |
| CC[C@H](C)[C@H](NC(=O)[C@H](C)NC(=O)[C@H](CCCCN)NC(=O)[C@H](CCCNC(=N)N)NC(=O)[C@@H](NC(=O)[C@H](CCCNC(=N)N)NC(=O)[C@H](CCCNC(=N)N)NC(=O)CNC(=O)[C@H](Cc1ccc(O)cc1)NC(=O)[C@H](CCCNC(=N)N)NC(=O)[C@H](C)NC(=O)CNC(=O)[C@H](Cc1ccccc1)NC(=O)[C@H](CCCNC(=N)N)NC(=O)CNC(=O)[C@H](C)NC(=O)[C@H](CO)NC(=O)[C@H](CCCCN)NC(=O)[C@@H](NC(=O)[C@H](CCCCN)NC(=O)[C@@H](NC(=O)CNC(=O)[C@H](CCCCN)NC(=O)[C@H](CCCCN)NC(=O)[C@H](CCCNC(=N)N)NC(=O)[C@H](CCCCN)NC(=O)[C@H](CCC(N)=O)NC(=O)[C@H](CCCCN)NC(=O)[C@H](CCCCN)NC(=O)[C@@H](NC(=O)[C@@H](N)CCSC)[C@@H](C)O)[C@@H](C)CC)[C@@H](C)O)[C@@H](C)CC)C(=O)O (H-MTKKQKRKKGIKTKSAGRFGARYGRRIRKAI-OH) | > 70.7 | > 70.7 | 8.84 (≈ 32 µg/mL) | 4.42 (≈ 16 µg/mL) |
| CC[C@H](C)[C@H](NC(=O)[C@H](CCCCN)NC(=O)[C@H](CC(C)C)NC(=O)[C@H](Cc1ccccc1)NC(=O)[C@H](CC(C)C)NC(=O)[C@H](Cc1ccccc1)NC(=O)[C@@H](NC(=O)[C@H](CO)NC(=O)[C@H](CO)NC(=O)[C@@H](NC(=O)[C@H](Cc1ccccc1)NC(=O)[C@@H](NC(=O)[C@H](CO)NC(=O)[C@H](Cc1ccc(O)cc1)NC(=O)[C@@H](N)CCSC)C(C)C)[C@@H](C)CC)[C@@H](C)CC)C(=O)N[C@@H](CCCNC(=N)N)C(=O)N[C@@H](Cc1ccccc1)C(=O)N[C@@H](CCCCN)C(=O)N[C@@H](CC(C)C)C(=O)N[C@@H](Cc1ccc(O)cc1)C(=O)N1CCC[C@H]1C(=O)N[C@@H](CCCNC(=N)N)C(=O)O (H-MYSVFISSIFLFLKIRFKLYPR-OH) | > 92.4 | > 92.4 | > 92.4 | > 92.4 |
| CC(C)C[C@H](NC(=O)[C@H](CCC(=O)O)NC(=O)[C@H](CCCCN)NC(=O)[C@H](CC(C)C)NC(=O)[C@@H](NC(=O)[C@@H]1CCCN1)C(C)C)C(=O)N[C@@H](CCCCN)C(=O)N[C@@H](CO)C(=O)N[C@H](C(=O)N[C@@H](CCC(N)=O)C(=O)N[C@@H](CCCCN)C(=O)N[C@H](C(=O)N[C@@H](CCCCN)C(=O)N[C@@H](CO)C(=O)NCC(=O)N[C@@H](CC(=O)O)C(=O)N[C@H](C(=O)N[C@@H](CC(C)C)C(=O)N[C@@H](Cc1ccc(O)cc1)C(=O)O)[C@@H](C)O)[C@@H](C)O)C(C)C (H-PVLKELKSVQKTKSGDTLY-OH) | > 120 | > 120 | > 120 | > 120 |
| CC(C)[C@H](NC(=O)[C@H](CCCNC(=N)N)NC(=O)[C@H](Cc1ccccc1)NC(=O)[C@H](CS)NC(=O)[C@H](Cc1c[nH]c2ccccc12)NC(=O)[C@H](CCCNC(=N)N)NC(=O)[C@@H](N)CCCNC(=N)N)C(=O)N[C@@H](CS)C(=O)N[C@@H](Cc1ccc(O)cc1)C(=O)N[C@@H](CCCNC(=N)N)C(=O)NCC(=O)N[C@@H](Cc1ccccc1)C(=O)N[C@@H](CS)C(=O)N[C@@H](Cc1ccc(O)cc1)C(=O)N[C@@H](CCCNC(=N)N)C(=O)N[C@@H](CCCCN)C(=O)N[C@@H](CS)C(=O)N[C@@H](CCCNC(=N)N)C(=O)O (H-RRWCFRVCYRGFCYRKCR-OH) | 4.07 (≈ 10 µg/mL) | 4.07 (≈ 10 µg/mL) | 1.02 (≈ 2.51 µg/mL) | 1.02 (≈ 2.51 µg/mL) |
| CC[C@H](C)[C@H](NC(=O)[C@H](C)NC(=O)[C@H](CS)NC(=O)[C@H](CO)NC(=O)[C@@H](NC(=O)[C@H](Cc1ccccc1)NC(=O)[C@@H](N)Cc1ccc(O)cc1)[C@@H](C)CC)C(=O)N[C@@H](Cc1cnc[nH]1)C(=O)N[C@@H](Cc1ccccc1)C(=O)N[C@@H](CCCCN)C(=O)N[C@H](C(=O)N[C@@H](CC(C)C)C(=O)N[C@@H](CCCCN)C(=O)N[C@H](C(=O)N[C@@H](CCCNC(=N)N)C(=O)N[C@@H](CO)C(=O)N[C@@H](C)C(=O)N[C@@H](C)C(=O)N[C@@H](CCCCN)C(=O)N[C@@H](CCCNC(=N)N)C(=O)N[C@@H](CCCNC(=N)N)C(=O)N[C@@H](CCC(=O)O)C(=O)N[C@@H](Cc1cnc[nH]1)C(=O)N[C@H](C(=O)N[C@@H](CCCCN)C(=O)N[C@@H](CC(C)C)C(=O)N[C@@H](CCCNC(=N)N)C(=O)O)[C@@H](C)O)[C@@H](C)CC)[C@@H](C)CC (H-YFISCAIHFKILKIRSAAKRREHTKLR-OH) | 77.9 (≈ 256 µg/mL) | 19.5 (≈ 64 µg/mL) | 38.9 (≈ 128 µg/mL) | 77.9 (≈ 256 µg/mL) |

Second part, the compound after the results:

| MIC (Candida albicans) [µM] | MIC (Pichia kudriavzevii) [µM] | MIC (Cryptococcus neoformans) [µM] | MIC (Candida parapsilosis) [µM] | Structure (SMILES) |
| --- | --- | --- | --- | --- |
| 28.1 (≈ 64 µg/mL) | 7.02 (≈ 16 µg/mL) | 7.02 (≈ 16 µg/mL) | 14 (≈ 32 µg/mL) | CC[C@H](C)[C@H](NC(=O)[C@H](Cc1cnc[nH]1)NC(=O)[C@H](C)NC(=O)[C@H](CC(C)C)NC(=O)[C@H](CC(C)C)NC(=O)[C@H](CCCCN)NC(=O)[C@H](CCSC)NC(=O)[C@@H](NC(=O)[C@@H](NC(=O)[C@H](Cc1cnc[nH]1)NC(=O)[C@H](Cc1c[nH]c2ccccc12)NC(=O)[C@@H](NC(=O)[C@H](CCCCN)NC(=O)[C@H](Cc1cnc[nH]1)NC(=O)[C@@H](NC(=O)[C@H](CCCCN)NC(=O)[C@H](Cc1cnc[nH]1)NC(=O)[C@@H](N)Cc1ccc(O)cc1)[C@@H](C)CC)C(C)C)[C@@H](C)CC)[C@@H](C)CC)C(=O)O (H-YHKIHKVWHIIMKLLAHI-OH) |
| > 95 | > 95 | > 95 | > 95 | CC[C@H](C)[C@H](NC(=O)[C@H](CCCNC(=N)N)NC(=O)CNC(=O)[C@H](CC(C)C)NC(=O)[C@H](Cc1ccccc1)NC(=O)[C@H](CCC(N)=O)NC(=O)[C@H](Cc1ccccc1)NC(=O)[C@@H](N)C(C)C)C(=O)N[C@H](C(=O)N[C@@H](Cc1cnc[nH]1)C(=O)N[C@@H](Cc1cnc[nH]1)C(=O)N[C@H](C(=O)NCC(=O)N[C@@H](CC(N)=O)C(=O)N[C@@H](Cc1ccccc1)C(=O)N[C@H](C(=O)N[C@@H](Cc1cnc[nH]1)C(=O)NCC(=O)N[C@@H](Cc1ccccc1)C(=O)N[C@@H](CO)C(=O)N[C@@H](Cc1cnc[nH]1)C(=O)N[C@H](C(=O)N[C@@H](Cc1ccccc1)C(=O)O)C(C)C)C(C)C)C(C)C)[C@@H](C)CC [Clavanin B] (H-VFQFLGRIIHHVGNFVHGFSHVF-OH) |
